For assay [1], the system named is H9c2. Briefly: Cardioprotective activity against OGD/R-induced cell injury in rat H9c2 cells assessed as increase in cell viability at 20 uM subjected to OGD condition for 6 hrs followed by compound treatment and measured after 6 hrs by MTT assay. The assay is classed as functional, cell-based. Background: Tetrazolium assays rely on reduction of a dye to a coloured formazan, in cell work by metabolically active cells.

Assay [2] relates to H9c2. The assay is described as follows: Induction of apoptosis in OGD/R-induced rat H9c2 cells assessed as viable cells at 100 uM preincubated with compound followed by treatment under OGD condition by Annexin V-FITC staining based flow cytometric analysis (reference value: 93.9%). The format is functional. The following applies: read-out: Activity. Background: A flow cytometer gives signals particle by particle.

For assay [3], the system named is H9c2. Briefly: Induction of apoptosis in OGD/R-induced rat H9c2 cells assessed as early apoptotic cells at 100 uM preincubated with compound followed by treatment under OGD condition by Annexin V-FITC staining based flow cytometric analysis (reference value: 0.97%). The assay is classed as functional.
The subject of assay [4] is H9c2. Briefly: Cardioprotective activity against OGD/R-induced cell injury in rat H9c2 cells assessed as increase in cell viability at 100 uM subjected to OGD condition for 6 hrs followed by compound treatment and measured after 6 hrs by MTT assay relative to control. The format is functional.
For assay [5], the system named is H9c2. The assay is described as follows: Induction of apoptosis in OGD/R-induced rat H9c2 cells assessed as late apoptotic cells at 100 uM preincubated with compound followed by treatment under OGD condition by Annexin V-FITC staining based flow cytometric analysis (reference value: 4.14%). The assay is classed as functional.
Assay [6] has as its system H9c2. Briefly: Induction of apoptosis in OGD/R-induced rat H9c2 cells assessed as total apoptotic cells at 100 uM preincubated with compound for 24 hrs followed by treatment under OGD condition by Annexin V-FITC staining based flow cytometric analysis relative to control. The assay is classed as functional.
Assay [7] has as its system H9c2. Briefly: Induction of apoptosis in OGD/R-induced rat H9c2 cells assessed as necrotic cells at 100 uM preincubated with compound followed by treatment under OGD condition by Annexin V-FITC staining based flow cytometric analysis (reference value: 1.01%). The format is functional.
Assay [8] relates to H9c2. Briefly: Induction of apoptosis in OGD/R-induced rat H9c2 cells assessed as viable cells at 10 uM preincubated with compound followed by treatment under OGD condition by Annexin V-FITC staining based flow cytometric analysis (reference value: 93.9%). The assay is classed as functional. As to conditions: read-out: Activity.
For assay [9], the system named is H9c2. The assay is described as follows: Induction of apoptosis in OGD/R-induced rat H9c2 cells assessed as necrotic cells at 5 uM preincubated with compound followed by treatment under OGD condition by Annexin V-FITC staining based flow cytometric analysis (reference value: 1.01%). The assay is classed as functional.
Assay [10] has as its system H9c2. Briefly: Cardioprotective activity against OGD/R-induced cell injury in rat H9c2 cells assessed as increase in cell viability at 5 uM subjected to OGD condition for 6 hrs followed by compound treatment and measured after 6 hrs by MTT assay relative to control. The format is functional.
Assay [11] relates to H9c2. The assay is described as follows: Induction of apoptosis in OGD/R-induced rat H9c2 cells assessed as late apoptotic cells at 10 uM preincubated with compound followed by treatment under OGD condition by Annexin V-FITC staining based flow cytometric analysis (reference value: 4.14%). The assay is classed as functional.
Assay [12] has as its system H9c2. The assay is described as follows: Induction of apoptosis in OGD/R-induced rat H9c2 cells assessed as viable cells at 5 uM preincubated with compound followed by treatment under OGD condition by Annexin V-FITC staining based flow cytometric analysis (reference value: 93.9%). As to conditions: read-out: Activity. The assay is classed as functional.
Assay [13] concerns H9c2. The assay is described as follows: Cardioprotective activity against OGD/R-induced cell injury in rat H9c2 cells assessed as increase in cell viability at 20 uM subjected to OGD condition for 6 hrs followed by compound treatment and measured after 6 hrs by MTT assay relative to control. The format is functional.
Assay [14] deals with H9c2. Briefly: Induction of apoptosis in OGD/R-induced rat H9c2 cells assessed as necrotic cells at 10 uM preincubated with compound followed by treatment under OGD condition by Annexin V-FITC staining based flow cytometric analysis (reference value: 1.01%). The assay is classed as functional.
For assay [15], the system named is H9c2. The assay is described as follows: Induction of apoptosis in OGD/R-induced rat H9c2 cells assessed as late apoptotic cells at 5 uM preincubated with compound followed by treatment under OGD condition by Annexin V-FITC staining based flow cytometric analysis (reference value: 4.14%). The assay is classed as functional.
Assay [16] has as its system H9c2. The assay is described as follows: Induction of apoptosis in OGD/R-induced rat H9c2 cells assessed as total apoptotic cells at 5 uM preincubated with compound for 24 hrs followed by treatment under OGD condition by Annexin V-FITC staining based flow cytometric analysis relative to control. The format is functional.
Assay [17] has as its system H9c2. Briefly: Induction of apoptosis in OGD/R-induced rat H9c2 cells assessed as total apoptotic cells at 10 uM preincubated with compound for 24 hrs followed by treatment under OGD condition by Annexin V-FITC staining based flow cytometric analysis relative to control. The assay is classed as functional.
For assay [18], the system named is H9c2. Briefly: Induction of apoptosis in OGD/R-induced rat H9c2 cells assessed as early apoptotic cells at 10 uM preincubated with compound followed by treatment under OGD condition by Annexin V-FITC staining based flow cytometric analysis (reference value: 0.97%). The assay is classed as functional.
Assay [19] concerns H9c2. Briefly: Induction of mitochondrial membrane potential loss in OGD/R-induced rat H9c2 cells assessed as increase in red to green fluorescence ratio by JC-1 staining based microscopic analysis relative to control. The assay is classed as functional.
Assay [20] has as its system H9c2. Briefly: Induction of apoptosis in OGD/R-induced rat H9c2 cells assessed as early apoptotic cells at 5 uM preincubated with compound followed by treatment under OGD condition by Annexin V-FITC staining based flow cytometric analysis (reference value: 0.97%). The format is functional.

Active and inactive are the calls of the source. The rule behind the calls is not given here.

For the molecule `C[C@@H]([C@H]1CC[C@@]2(C)C3=CC[C@H]4C(C)(C)[C@@H](O)CC[C@]4(C)C3=CC[C@]12C)[C@H]1C[C@@H](O)C(C)(C)O1`, the outcome in assay [1] was inactive.
Turning to `CC1=Nc2ccc(Cl)cc2S(=O)(=O)N1` [DIAZOXIDE], the viability at 100 µM in assay [2] was determined as 81.3%. Besides, the Activity in assay [3] stood at 5.41%; in [4], 14.9%; in assay [5] it was 12.7%; in assay [6], 17.3%; in [7], 0.58%.
`C[C@@H]([C@H]1CC[C@@]2(C)C3=C(CC[C@]12C)[C@@]1(C)CC[C@H](O)C(C)(C)[C@@H]1CC3)[C@H]1CCC(C)(C)O1`: in assay [8], the viability at 10 µM was determined as 85.9%. Also, the Activity stood at 0.52% in assay [9]; 11.4% in assay [10]; 8.97% in assay [11]; 18.7% in assay [13]; 0.035% in assay [14]; 13.3% in [15]. In addition, the Activity in assay [16] came to 17.4%; in assay [17], 14.5%; in assay [18], 5.12%; in assay [19] it was 90%; in assay [20], 2.55%. For the same molecule, the viability at 5 µM in [12] was determined as 83.7%.
For `C[C@@H]([C@H]1CC[C@@]2(C)C3=CC[C@H]4C(C)(C)[C@@H](O)CC[C@]4(C)C3=CC[C@]12C)[C@H]1C[C@H](O)C(C)(C)O1`, the result in assay [1] was inactive.
Same read-out and setting: the value for `C[C@@H]([C@H]1CC[C@@]2(C)C3=C(CC[C@]12C)[C@@]1(C)CC[C@H](O)C(C)(C)[C@@H]1CC3)[C@H]1C[C@H](O)C(C)(C)O1` was “inactive”.
On the same count and under the same terms, the value for `C[C@H]([C@@H]1C[C@H](O)C(C)(C)O1)[C@H]1CC[C@@]2(C)C3=C(CC[C@]12C)[C@@]1(C)CC[C@H](O)C(C)(C)[C@@H]1CC3` was “inactive”; that for `C[C@H]([C@@H]1C[C@@H](O)C(C)(C)O1)[C@H]1CC[C@@]2(C)C3=CC[C@H]4C(C)(C)[C@@H](O)CC[C@]4(C)C3=CC[C@]12C` was “inactive”.
In the case of `C[C@H]([C@@H]1C[C@@H](O)C(C)(C)O1)[C@H]1CC[C@@]2(C)C3=C(CC[C@]12C)[C@@]1(C)CC[C@H](O)C(C)(C)[C@@H]1CC3`, in assay [1], the result was inactive.
Turning to `C[C@H]([C@@H]1CCC(C)(C)O1)[C@H]1CC[C@@]2(C)C3=C(CC[C@]12C)[C@@]1(C)CC[C@H](O)C(C)(C)[C@@H]1CC3`, in assay [13], the Activity amounted to 10.8%.
Regarding `C[C@H]([C@@H]1C[C@H](O)C(C)(C)O1)[C@H]1CC[C@@]2(C)C3=CC[C@H]4C(C)(C)[C@@H](O)CC[C@]4(C)C3=CC[C@]12C`, the result in assay [1] was inactive.
The same measure, in the same setting: the value for `C[C@@H]([C@H]1CC[C@@]2(C)C3=C(CC[C@]12C)[C@@]1(C)CC[C@H](O)C(C)(C)[C@@H]1CC3)[C@H]1C[C@@H](O)C(C)(C)O1` was “inactive”.
In the case of `C[C@@H]([C@H]1CC[C@@]2(C)C3=CC[C@H]4C(C)(C)[C@@H](O)CC[C@]4(C)C3=CC[C@]12C)[C@H]1CCC(C)(C)O1`, the Activity in assay [13] was determined as 11.4%.
Still for that read-out and setting: the value for `C[C@H]([C@@H]1CCC(C)(C)O1)[C@H]1CC[C@@]2(C)C3=CC[C@H]4C(C)(C)[C@@H](O)CC[C@]4(C)C3=CC[C@]12C` was 10.6%.
With `C=C(C)[C@@H]1CC=C2C(=CC[C@]3(C)[C@@H]([C@H](C)[C@H]4CCC(C)(C)O4)CC[C@@]23C)[C@@]1(C)CCC(=O)O`, the Activity is on record as 6.4% in assay [10] and 17.7% in assay [13].

For the origin of these results see ChEMBL document CHEMBL5226393, “Semisynthesis of 22,25-Epoxylanostane Triterpenoids: Structure Revision and Protective Effects against Oxygen-Glucose Deprivation/Reoxygenation Injury in H9c2 Cells” (2023).
